Measurements taken from patent publication US8957108B2, “Use of 5,6-dimethylxanthenone-4-acetic acid as an antiviral agent” (University of Maryland, Baltimore, priority 2006, dated 2015).

Tests used:
peritoneal macrophages = test: Quantitative real-time PCR of cytokine mRNA in murine peritoneal macrophages
[1] = IFN-β-deficient cells, DMXAA 3 h vs unstimulated wild-type cells

Structure (SMILES): Cc1ccc2c(=O)c3cccc(CC(=O)O)c3oc2c1C [DMXAA, 5,6-dimethylxanthenone-4-acetic acid]
- CYP1A2 Fold Change: IFNβ−/− (IFN-β−/− macrophages): 3.9 fold
- CYP1B1 Fold Change: IFNβ−/− (IFN-β−/− macrophages): 5.9 fold
- 2310043N10RIK Fold Change: IFNβ−/− (IFN-β−/− macrophages; [1]): 2.2 fold
- 5830484A20RIK Fold Change: IFNβ−/− (IFN-β−/− macrophages; [1]): 4.0 fold
- ABCB1 Fold Change: IFNβ−/− (IFN-β−/− macrophages; [1]): 7.1 fold
- ABL1 Fold Change: IFNβ−/− (IFN-β−/− macrophages; [1]): 1.5 fold
- ABLIM1 Fold Change: IFNβ−/− (IFN-β−/− macrophages; [1]): 1.4 fold
- ACVR1B Fold Change: IFNβ−/− (IFN-β−/− macrophages; [1]): 2.3 fold
- ADRB2 Fold Change: IFNβ−/− (IFN-β−/− macrophages; [1]): 1.7 fold
- AFTIPHILIN Fold Change: IFNβ−/− (IFN-β−/− macrophages; [1]): 1.2 fold
- AKAP12 Fold Change: IFNβ−/− (IFN-β−/− macrophages; [1]): 1.5 fold
- AMPD3 Fold Change: IFNβ−/− (IFN-β−/− macrophages; [1]): 2.7 fold
- AP2A2 Fold Change: IFNβ−/− (IFN-β−/− macrophages; [1]): 8.8 fold
- APBB1IP Fold Change: IFNβ−/− (IFN-β−/− macrophages; [1]): 1.8 fold
- APOBEC3F Fold Change: IFNβ−/− (IFN-β−/− macrophages; [1]): 1.4 fold
- ARHGEF3 Fold Change: IFNβ−/− (IFN-β−/− macrophages; [1]): 2.1 fold
- ARID3A Fold Change: IFNβ−/− (IFN-β−/− macrophages; [1]): 2.5 fold
- ARL4C Fold Change: IFNβ−/− (IFN-β−/− macrophages; [1]): 5.5 fold
- ASF1A Fold Change: IFNβ−/− (IFN-β−/− macrophages; [1]): 2.1 fold
- ATRX Fold Change: IFNβ−/− (IFN-β−/− macrophages; [1]): 2.6 fold
- B3GAT3 Fold Change: IFNβ−/− (IFN-β−/− macrophages; [1]): 1.6 fold
- BACE1 Fold Change: IFNβ−/− (IFN-β−/− macrophages; [1]): 3.7 fold
- BAMBI Fold Change: IFNβ−/− (IFN-β−/− macrophages; [1]): 1.5 fold
- BCL2 Fold Change: IFNβ−/− (IFN-β−/− macrophages; [1]): 1.4 fold
- BCL2L1 Fold Change: IFNβ−/− (IFN-β−/− macrophages; [1]): 2.3 fold
- BHLHB2 Fold Change: IFNβ−/− (IFN-β−/− macrophages; [1]): 1.3 fold
- BID Fold Change: IFNβ−/− (IFN-β−/− macrophages; [1]): 2.9 fold
- C8ORF4 Fold Change: IFNβ−/− (IFN-β−/− macrophages; [1]): 4.1 fold
- C9ORF26 Fold Change: IFNβ−/− (IFN-β−/− macrophages; [1]): 4.4 fold
- CCL2 Fold Change: IFNβ−/− (IFN-β−/− macrophages; [1]): 5.8 fold
- CCL3 Fold Change: IFNβ−/− (IFN-β−/− macrophages; [1]): 1.4 fold
- CCL4 Fold Change: IFNβ−/− (IFN-β−/− macrophages; [1]): 8.1 fold
- CCL5 Fold Change: IFNβ−/− (IFN-β−/− macrophages; [1]): 3.7 fold
- CCL7 Fold Change: IFNβ−/− (IFN-β−/− macrophages; [1]): 2.9 fold
- CCL13 Fold Change: IFNβ−/− (IFN-β−/− macrophages; [1]): 5.8 fold
- CCND2 Fold Change: IFNβ−/− (IFN-β−/− macrophages; [1]): 2.0 fold
- CCNE1 Fold Change: IFNβ−/− (IFN-β−/− macrophages; [1]): 2.9 fold
- CCNF Fold Change: IFNβ−/− (IFN-β−/− macrophages; [1]): 2.4 fold
- CCRN4L Fold Change: IFNβ−/− (IFN-β−/− macrophages; [1]): 1.6 fold
- CD37 Fold Change: IFNβ−/− (IFN-β−/− macrophages; [1]): 1.1 fold
- CD40 Fold Change: IFNβ−/− (IFN-β−/− macrophages; [1]): 1.3 fold
- CD86 Fold Change: IFNβ−/− (IFN-β−/− macrophages; [1]): 6.0 fold
- CD274 Fold Change: IFNβ−/− (IFN-β−/− macrophages; [1]): 1.0 fold
- CDC6 Fold Change: IFNβ−/− (IFN-β−/− macrophages; [1]): 3.2 fold
- CDC7 Fold Change: IFNβ−/− (IFN-β−/− macrophages; [1]): 1.6 fold
- CDC37L1 Fold Change: IFNβ−/− (IFN-β−/− macrophages; [1]): 2.2 fold
- CDKN1A Fold Change: IFNβ−/− (IFN-β−/− macrophages; [1]): 1.1 fold
- CEBPB Fold Change: IFNβ−/− (IFN-β−/− macrophages; [1]): 1.9 fold
- CITED2 Fold Change: IFNβ−/− (IFN-β−/− macrophages; [1]): 1.5 fold
- CLCA1 Fold Change: IFNβ−/− (IFN-β−/− macrophages; [1]): 1.9 fold
- CNR2 Fold Change: IFNβ−/− (IFN-β−/− macrophages; [1]): 2.3 fold
- CREBBP Fold Change: IFNβ−/− (IFN-β−/− macrophages; [1]): 6.3 fold
- CXCL10 Fold Change: IFNβ−/− (IFN-β−/− macrophages; [1]): 21.2 fold
- DAXX Fold Change: IFNβ−/− (IFN-β−/− macrophages; [1]): 1.6 fold
- DSCR1 Fold Change: IFNβ−/− (IFN-β−/− macrophages; [1]): 2.7 fold
- FGD6 Fold Change: IFNβ−/− (IFN-β−/− macrophages; [1]): 2.0 fold
- FGL2 Fold Change: IFNβ−/− (IFN-β−/− macrophages; [1]): 3.6 fold
- GBP2 Fold Change: IFNβ−/− (IFN-β−/− macrophages; [1]): 1.6 fold
- GBP4 Fold Change: IFNβ−/− (IFN-β−/− macrophages; [1]): 4.6 fold
- GBP6 Fold Change: IFNβ−/− (IFN-β−/− macrophages; [1]): 6.8 fold
- GYPC Fold Change: IFNβ−/− (IFN-β−/− macrophages; [1]): 4.4 fold
- IFI16 Fold Change: IFNβ−/− (IFN-β−/− macrophages; [1]): 2.7 fold
- IFI35 Fold Change: IFNβ−/− (IFN-β−/− macrophages; [1]): 1.1 fold
- IFI203 Fold Change: IFNβ−/− (IFN-β−/− macrophages; [1]): 3.4 fold
- IFI205 Fold Change: IFNβ−/− (IFN-β−/− macrophages; [1]): 1.8 fold
- IFIH1 Fold Change: IFNβ−/− (IFN-β−/− macrophages; [1]): 7.0 fold
- IFIT1 Fold Change: IFNβ−/− (IFN-β−/− macrophages; [1]): 22.2 fold
- IFIT2 Fold Change: IFNβ−/− (IFN-β−/− macrophages; [1]): 14.3 fold
- IFIT3 Fold Change: IFNβ−/− (IFN-β−/− macrophages; [1]): 10.5 fold
- IFNA5 Fold Change: IFNβ−/− (IFN-β−/− macrophages; [1]): 2.5 fold
- IFNA6 Fold Change: IFNβ−/− (IFN-β−/− macrophages; [1]): 9.1 fold
- IFNB1 Fold Change: IFNβ−/− (IFN-β−/− macrophages; [1]): 1.1 fold
- IFNG Fold Change: IFNβ−/− (IFN-β−/− macrophages; [1]): 59.4 fold
- IGTP Fold Change: IFNβ−/− (IFN-β−/− macrophages; [1]): 1.2 fold
- IIGP1 Fold Change: IFNβ−/− (IFN-β−/− macrophages; [1]): 1.2 fold
- IL6 Fold Change: IFNβ−/− (IFN-β−/− macrophages; [1]): 13.5 fold
- IL12B Fold Change: IFNβ−/− (IFN-β−/− macrophages; [1]): 1.4 fold
- IL15 Fold Change: IFNβ−/− (IFN-β−/− macrophages; [1]): 1.7 fold
- IL15RA Fold Change: IFNβ−/− (IFN-β−/− macrophages; [1]): 3.3 fold
- IRF1 Fold Change: IFNβ−/− (IFN-β−/− macrophages; [1]): 1.2 fold
- IRF2 Fold Change: IFNβ−/− (IFN-β−/− macrophages; [1]): 1.2 fold
- IRGM Fold Change: IFNβ−/− (IFN-β−/− macrophages; [1]): 2.3 fold
- ISG20 Fold Change: IFNβ−/− (IFN-β−/− macrophages; [1]): 3.4 fold
- KATNA1 Fold Change: IFNβ−/− (IFN-β−/− macrophages; [1]): 1.5 fold
- LGP2 Fold Change: IFNβ−/− (IFN-β−/− macrophages; [1]): 2.7 fold
- LHX2 Fold Change: IFNβ−/− (IFN-β−/− macrophages; [1]): 7.8 fold
- LOC129607 Fold Change: IFNβ−/− (IFN-β−/− macrophages; [1]): 7.8 fold
- MAFK Fold Change: IFNβ−/− (IFN-β−/− macrophages; [1]): 1.6 fold
- MARCH5 Fold Change: IFNβ−/− (IFN-β−/− macrophages; [1]): 1.9 fold
- MOV10 Fold Change: IFNβ−/− (IFN-β−/− macrophages; [1]): 1.2 fold
- MX1 Fold Change: IFNβ−/− (IFN-β−/− macrophages; [1]): 9.3 fold
- MX2 Fold Change: IFNβ−/− (IFN-β−/− macrophages; [1]): 1.1 fold
- NMI Fold Change: IFNβ−/− (IFN-β−/− macrophages; [1]): 1.6 fold
- NP Fold Change: IFNβ−/− (IFN-β−/− macrophages; [1]): 1.7 fold
- NT5C3 Fold Change: IFNβ−/− (IFN-β−/− macrophages; [1]): 1.8 fold
- OAS1B Fold Change: IFNβ−/− (IFN-β−/− macrophages; [1]): 2.1 fold
- OASL Fold Change: IFNβ−/− (IFN-β−/− macrophages; [1]): 19.7 fold
- P4HA1 Fold Change: IFNβ−/− (IFN-β−/− macrophages; [1]): 3.4 fold
- P8 Fold Change: IFNβ−/− (IFN-β−/− macrophages; [1]): 1.3 fold
- PARP9 Fold Change: IFNβ−/− (IFN-β−/− macrophages; [1]): 1.4 fold
- PELI1 Fold Change: IFNβ−/− (IFN-β−/− macrophages; [1]): 4.3 fold
- PGF Fold Change: IFNβ−/− (IFN-β−/− macrophages; [1]): 20.2 fold
- PLAU Fold Change: IFNβ−/− (IFN-β−/− macrophages; [1]): 2.3 fold
- PPP1R15A Fold Change: IFNβ−/− (IFN-β−/− macrophages; [1]): 1.6 fold
- PTX3 Fold Change: IFNβ−/− (IFN-β−/− macrophages; [1]): 1.3 fold
- PVRL2 Fold Change: IFNβ−/− (IFN-β−/− macrophages; [1]): 3.1 fold
- PVRL4 Fold Change: IFNβ−/− (IFN-β−/− macrophages; [1]): 4.3 fold
- REL Fold Change: IFNβ−/− (IFN-β−/− macrophages; [1]): 1.1 fold
- RGC32 Fold Change: IFNβ−/− (IFN-β−/− macrophages; [1]): 3.0 fold
- RIPK2 Fold Change: IFNβ−/− (IFN-β−/− macrophages; [1]): 1.3 fold
- RSAD2 Fold Change: IFNβ−/− (IFN-β−/− macrophages; [1]): 7.8 fold
- SAP30 Fold Change: IFNβ−/− (IFN-β−/− macrophages; [1]): 1.6 fold
- SAV1 Fold Change: IFNβ−/− (IFN-β−/− macrophages; [1]): 2.6 fold
- SDC4 Fold Change: IFNβ−/− (IFN-β−/− macrophages; [1]): 3.3 fold
- SECTM1 Fold Change: IFNβ−/− (IFN-β−/− macrophages; [1]): 1.2 fold
- SLC7A2 Fold Change: IFNβ−/− (IFN-β−/− macrophages; [1]): 1.8 fold
- SOAT1 Fold Change: IFNβ−/− (IFN-β−/− macrophages; [1]): 1.9 fold
- SOCS1 Fold Change: IFNβ−/− (IFN-β−/− macrophages; [1]): 3.4 fold
- STAT2 Fold Change: IFNβ−/− (IFN-β−/− macrophages; [1]): 1.7 fold
- TGTP Fold Change: IFNβ−/− (IFN-β−/− macrophages; [1]): 1.6 fold
- TLK2 Fold Change: IFNβ−/− (IFN-β−/− macrophages; [1]): 1.4 fold
- TLR3 Fold Change: IFNβ−/− (IFN-β−/− macrophages; [1]): 1.3 fold
- TMOD3 Fold Change: IFNβ−/− (IFN-β−/− macrophages; [1]): 2.3 fold
- TNF Fold Change: IFNβ−/− (IFN-β−/− macrophages; [1]): 1.4 fold
- TNFRSF11B Fold Change: IFNβ−/− (IFN-β−/− macrophages; [1]): 100.0 fold
- TNFSF9 Fold Change: IFNβ−/− (IFN-β−/− macrophages; [1]): 1.7 fold
- TOR1AIP1 Fold Change: IFNβ−/− (IFN-β−/− macrophages; [1]): 1.3 fold
- TPST1 Fold Change: IFNβ−/− (IFN-β−/− macrophages; [1]): 6.1 fold
- TREX1 Fold Change: IFNβ−/− (IFN-β−/− macrophages; [1]): 5.2 fold
- TRIM21 Fold Change: IFNβ−/− (IFN-β−/− macrophages; [1]): 2.6 fold
- TRIM25 Fold Change: IFNβ−/− (IFN-β−/− macrophages; [1]): 2.3 fold
- TRIM34 Fold Change: IFNβ−/− (IFN-β−/− macrophages; [1]): 1.9 fold
- USP18 Fold Change: IFNβ−/− (IFN-β−/− macrophages; [1]): 1.0 fold
- VCAM1 Fold Change: IFNβ−/− (IFN-β−/− macrophages; [1]): 1.6 fold
- ZBP1 Fold Change: IFNβ−/− (IFN-β−/− macrophages; [1]): 4.2 fold
- ZNF313 Fold Change: IFNβ−/− (IFN-β−/− macrophages; [1]): 1.5 fold
- induced IFN-β mRNA and protein in MyD88−/− macrophages (peritoneal macrophages; 2 h mRNA, 24 h protein): not significantly altered
- induced TNF-α mRNA and protein in MyD88−/− macrophages (peritoneal macrophages; 2 h mRNA, 24 h protein): not significantly altered
- response to restimulation with either LPS or DMXAA after pretreatment (peritoneal macrophages; 24 h pretreatment, restimulated 1 h): induces a state of refractoriness
- TNF-α mRNA in the absence of TLR4 (peritoneal macrophages; TLR4−/− peritoneal macrophages, 2 h): induces TNF-α to wild-type levels
- induction of IFN-β protein and IP-10 mRNA compared with LPS (peritoneal macrophages; murine macrophages): much more potent inducer
- IFN-β steady-state mRNA relative to LPS (peritoneal macrophages; peritoneal exudate macrophages, 2 h, real-time PCR): ~10 fold
